For data set [1] the following is noted: ref Kumar et al., 2002; Mano et al., 2007; cited from earlier work.
The target in data set [2] is T1, P450 2C9 (Homo sapiens, UniProt P11712). The data set is described as follows: in vitro. The note with it: recombinant enzyme, pH 7.4, in vitro half-life (t1/2).
For data set [3], the target named is T1, P450 2C9. The data set is described as follows: P450 2C9 inactivation assay. The note with it: Hill equation.
Data set [4] deals with T1, P450 2C9. The data set can be described thus: Metabolic stability by substrate depletion. Particulars: 1 μM substrate, 0.04 μM P450 2C9, NADPH 2 mM, 37°C.
In data set [5] the target is P450 2C9 Baculosomes (Homo sapiens, UniProt P11712). The data set can be described thus: Partition ratio by titration method. Particulars: 30 min pre-incubation, (S)-flurbiprofen as probe substrate.
Data set [6] concerns P450 2C9. Particulars: in humans; ref Obach et al., 2007; cited from earlier work.

By half-life is commonly meant the time in which the quantity being followed falls by half.

SMILES strings stand for the structures.

T1 sequence (P11712 whole entry): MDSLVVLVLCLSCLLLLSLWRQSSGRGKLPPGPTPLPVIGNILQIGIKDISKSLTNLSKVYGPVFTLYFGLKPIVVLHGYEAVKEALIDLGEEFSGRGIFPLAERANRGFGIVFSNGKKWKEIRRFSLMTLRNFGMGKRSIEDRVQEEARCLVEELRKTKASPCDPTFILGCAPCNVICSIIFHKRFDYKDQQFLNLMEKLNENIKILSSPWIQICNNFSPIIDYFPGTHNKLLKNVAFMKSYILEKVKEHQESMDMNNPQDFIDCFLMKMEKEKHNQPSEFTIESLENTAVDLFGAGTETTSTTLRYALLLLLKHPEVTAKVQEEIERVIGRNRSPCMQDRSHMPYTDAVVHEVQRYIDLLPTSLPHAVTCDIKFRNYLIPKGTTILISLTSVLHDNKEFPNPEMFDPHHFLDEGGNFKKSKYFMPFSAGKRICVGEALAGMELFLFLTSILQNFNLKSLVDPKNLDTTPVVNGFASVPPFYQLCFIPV
P450 2C9 Baculosomes, sequence (P11712 whole entry): as above

Take `C[C@H](C(=O)O)c1ccc(-c2ccccc2)c(F)c1` [(S)-flurbiprofen]: the “cleared by direct glucuronidation of the carboxylate functional groups” value in data set [1] was “roughly 50%”.

Turning to `O=C(O)COc1ccc(C(=O)c2cccs2)c(Cl)c1Cl` [Tienilic Acid, Tienilic acid], the half-life at 1 μM in data set [2] was 5 min.

With `CC(C(=O)O)c1ccc(C(=O)c2cccs2)cc1` (racemic) [(±)-Suprofen, (±)-suprofen], the “n (Hill coefficient)” value in data set [3] (probe substrate (S)-flurbiprofen) worked out at 1.4. In addition, the “n (Hill coefficient)” value in data set [3] (probe substrate diclofenac) came out at 1.3. Further, in data set [4], the “in vitro half-life (t1/2)” value is 50 min. Also, in data set [5], the partition ratio was 98 and the “turnover number (partition ratio + 1)” value is reported as 99.

For `C[C@H](C(=O)O)c1ccc(C(=O)c2cccs2)cc1` [(S)-suprofen], in data set [2], the half-life at 1 μM fell in the range of 35 to 38 min.

For `CC(=O)C[C@@H](c1ccccc1)c1c(O)c2ccccc2oc1=O` [(S)-warfarin], in data set [6], the “fraction metabolized through P450 2C9 (fm2C9)” value is given as 0.91.

Take `C[C@@H](C(=O)O)c1ccc(C(=O)c2cccs2)cc1` [(R)-suprofen]: the half-life at 1 μM in data set [2] lay within 35 to 38 min.

For the compound `O=C(O)Cc1ccccc1Nc1c(Cl)cccc1Cl` [diclofenac], the “cleared by direct glucuronidation of the carboxylate functional groups” value in data set [1] is “roughly 50%”.

(Values after paper PMC2610245 (Drug metabolism and disposition: the biological fate of …, 2008).)
